Test results reported in patent US8414989B2, “Cyclodextrin compositions, articles, and methods” (Cellresin Technologies, LLC, priority 2011, dated 2013).

Experiments:
[1] = Example 4: 1-MCP headspace release versus coated surface area and time; type: physicochemical; conditions: 4.0 wt-% 1-MCP/c/α-CD coating, 20 μL water
Protocol: A 4.0 wt-% 1-MCP/c/α-CD blend was made according to the technique of Example 3. A rubber ink roller was used to deliver a coating having a nominal thickness of 0.3 μm to a 20 cm by 20 cm polyethylene extrusion coated paper sheet using the technique of Example 2. The coated sheet was cured according to the procedure of Example 2.
Using a razor blade, 26 cm^2, 52 cm^2, and 78 cm^2 samples were cut from the coated portion of the sheet. Each sample was placed in a 250 mL serum bottle. The bottles were sealed with TEFLON® faced silicone septa. Then 20 μL of deionized water was injected into each bottle. […] Bottle headspace analysis was conducted according to the technique of Example 3 at 0.17 hours, 0.5 hours, 1 hour, 2 hours, 4 hours and 24 hours after the injection of water.

[2] = Example 5: 1-MCP headspace release versus wt-% 1-MCP/c/α-CD and time; type: physicochemical; conditions: 5 cm x 10 cm, 250 mL bottle, water injected, average
Protocol: Using a razor blade, six 5 cm×10 cm rectangles were cut from the coated portions of 20 cm by 20 cm sheets prepared as in Example 3 and having 1.0 wt-%, 2.0 wt-% and 4.0 wt-% 1-MCP/c/α-CD, and the coated rectangles were cured according to the technique of Example 2. The rectangles were individually placed in 250 mL serum bottles. The bottles were sealed with TEFLON® faced silicone septa. Then […] of deionized water was injected into each bottle. […] Bottle headspace was analyzed at 4, 8, 24 and 48 hours after the injection of water, using the technique of Example 3. The results are provided in Table 4 and FIG. 4 and give the average headspace concentration and standard deviation for the different wt-% 1-MCP/c/α-CD coatings as a function of time.

[3] = Example 9: 1-MCP headspace release from UV-cured ink coated on PET film; type: physicochemical; conditions: 4 wt-% 1-MCP/c/α-CD UV ink on PET, 200 μL water
Protocol: ImTech UVBLK Series 912 cartridges were obtained from ImTech Inc. of Corvallis, Oreg. About 40 g of black ink was removed from the cartridge in which the ink was supplied. The ink was dried overnight in a closed container with 3 A molecular sieves to remove residual water contained in the ink. Then 17.5 g of the dried ink was transferred to a 70 mL roller mill jar filled with 50 g of 3 mm glass beads to which 0.875 g of 1-MCP/c/α-CD was added to the UV ink. The jar was sealed and rotated on a roller mill at 140 rpm for four hours. At the end of four hours of rolling to disperse the 1-MCP/c/α-CD, an additional 4.375 g of dry UV ink was added making a 4 wt-% 1-MCP/c/α-CD containing ink. Then the ink was decanted from the glass beads.
A rubber ink roller was used to coat a discontinuous, thin (nominally 3 μm), but uniform UV ink coating onto a 10 cm by 20 cm section of PET film (120 microns thick, obtained from the 3M Company of St. Paul, Minn.) in the manner described in Example 2. UV ink coated rectangles were passed by hand about 10 cm beneath a medium pressure mercury arc lamp operating at 79 watts per cm for 1.5 seconds exposure to the lamp. The cured sample was allowed to sit on a laboratory bench overnight ink side down.
A paper cutter was used to cut two samples, 20 cm^2 and 81 cm^2, from the cured ink coated PET film sheet. The samples were individually placed in 250 mL serum bottles. The bottles were then sealed with TEFLON® faced silicone septa. Then 200 μL of deionized water was injected into the bottle. […] After the injection of water into the bottle, 1-MCP was measured in the headspace using the analytical technique employed in Example 3.

[4] = cited from earlier work

CC1=CC1 [1-MCP, 1-methylcyclopropene]
Headspace concentration of 1-MCP ([1]; 26 cm^2, 250 mL bottle, 0.17 hrs): 0.25 ppm -v/v | Headspace concentration of 1-MCP ([1]; 26 cm^2, 250 mL bottle, 0.5 hrs): 1.5 ppm -v/v | Headspace concentration of 1-MCP ([1]; 26 cm^2, 250 mL bottle, 1 hr): 2.4 ppm -v/v | Headspace concentration of 1-MCP ([1]; 26 cm^2, 250 mL bottle, 2 hrs): 3.7 ppm -v/v | Headspace concentration of 1-MCP ([1]; 26 cm^2, 250 mL bottle, 4 hrs): 5.8 ppm -v/v | Headspace concentration of 1-MCP ([1]; 26 cm^2, 250 mL bottle, 24 hrs): 9.6 ppm -v/v | Headspace concentration of 1-MCP ([1]; 52 cm^2, 250 mL bottle, 0.17 hrs): 0.66 ppm - v/v | Headspace concentration of 1-MCP ([1]; 52 cm^2, 250 mL bottle, 0.5 hrs): 2.2 ppm - v/v | Headspace concentration of 1-MCP ([1]; 52 cm^2, 250 mL bottle, 1 hr): 4.2 ppm - v/v | Headspace concentration of 1-MCP ([1]; 52 cm^2, 250 mL bottle, 2 hrs): 7.0 ppm - v/v | Headspace concentration of 1-MCP ([1]; 52 cm^2, 250 mL bottle, 4 hrs): 9.9 ppm - v/v | Headspace concentration of 1-MCP ([1]; 52 cm^2, 250 mL bottle, 24 hrs): 16.1 ppm - v/v | Headspace concentration of 1-MCP ([1]; 78 cm^2, 250 mL bottle, 0.17 hrs): 1.7 ppm - v/v | Headspace concentration of 1-MCP ([1]; 78 cm^2, 250 mL bottle, 0.5 hrs): 3.4 ppm - v/v | Headspace concentration of 1-MCP ([1]; 78 cm^2, 250 mL bottle, 1 hr): 5.2 ppm - v/v | Headspace concentration of 1-MCP ([1]; 78 cm^2, 250 mL bottle, 2 hrs): 7.9 ppm - v/v | Headspace concentration of 1-MCP ([1]; 78 cm^2, 250 mL bottle, 4 hrs): 12.4 ppm - v/v | Headspace concentration of 1-MCP ([1]; 78 cm^2, 250 mL bottle, 24 hrs): 20.0 ppm - v/v | 1-MCP in Headspace ([2]; 1 wt-% 1-MCP/c/α-CD coated, 4 hours): 0.96 ppm-v/v | 1-MCP in Headspace ([2]; 1 wt-% 1-MCP/c/α-CD coated, 8 hours): 2.0 ppm-v/v | 1-MCP in Headspace ([2]; 1 wt-% 1-MCP/c/α-CD coated, 24 hours): 3.6 ppm-v/v | 1-MCP in Headspace ([2]; 1 wt-% 1-MCP/c/α-CD coated, 48 hours): 4.0 ppm-v/v | 1-MCP in Headspace ([2]; 2 wt-% 1-MCP/c/α-CD coated, 4 hours): 3.5 ppm-v/v | 1-MCP in Headspace ([2]; 2 wt-% 1-MCP/c/α-CD coated, 8 hours): 7.8 ppm-v/v | 1-MCP in Headspace ([2]; 2 wt-% 1-MCP/c/α-CD coated, 24 hours): 17.8 ppm-v/v | 1-MCP in Headspace ([2]; 2 wt-% 1-MCP/c/α-CD coated, 48 hours): 21.2 ppm-v/v | 1-MCP in Headspace ([2]; 4 wt-% 1-MCP/c/α-CD coated, 4 hours): 7.5 ppm-v/v | 1-MCP in Headspace ([2]; 4 wt-% 1-MCP/c/α-CD coated, 8 hours): 13.5 ppm-v/v | 1-MCP in Headspace ([2]; 4 wt-% 1-MCP/c/α-CD coated, 24 hours): 24.0 ppm-v/v | 1-MCP in Headspace ([2]; 4 wt-% 1-MCP/c/α-CD coated, 48 hours): 28.0 ppm-v/v | Headspace concentration of 1-MCP ([3]; 20 cm^2, 250 mL bottle, 0.5 hours): <0.01 ppm (v/v) | Headspace concentration of 1-MCP ([3]; 20 cm^2, 250 mL bottle, 1 hour): <0.01 ppm (v/v) | Headspace concentration of 1-MCP ([3]; 20 cm^2, 250 mL bottle, 2 hours): 0.01 ppm (v/v) | Headspace concentration of 1-MCP ([3]; 20 cm^2, 250 mL bottle, 4 hours): 0.04 ppm (v/v) | Headspace concentration of 1-MCP ([3]; 20 cm^2, 250 mL bottle, 8 hours): 0.05 ppm (v/v) | Headspace concentration of 1-MCP ([3]; 20 cm^2, 250 mL bottle, 27 hours): 0.09 ppm (v/v) | Headspace concentration of 1-MCP ([3]; 20 cm^2, 250 mL bottle, 170 hours): 0.76 ppm (v/v) | Headspace concentration of 1-MCP ([3]; 81 cm^2, 250 mL bottle, 0.5 hours): <0.01 ppm (v/v) | Headspace concentration of 1-MCP ([3]; 81 cm^2, 250 mL bottle, 1 hour): 0.05 ppm (v/v) | Headspace concentration of 1-MCP ([3]; 81 cm^2, 250 mL bottle, 2 hours): 0.18 ppm (v/v) | Headspace concentration of 1-MCP ([3]; 81 cm^2, 250 mL bottle, 21 hours): 0.51 ppm (v/v) | Headspace concentration of 1-MCP ([3]; 81 cm^2, 250 mL bottle, 48 hours): 0.60 ppm (v/v) | 1-MCP remained complexed ([4]; 1-MCP/c/α-CD, end of the experiments): ~83.4% | total complexed 1-MCP dissociated at the end of the experiments, average ([4]; 1-MCP/c/α-CD, humidity-triggered dissociation): ~17.6% | complexed 1-MCP released from 1-MCP/c/α-CD ([4]; 100% relative humidity): less than 20%
